In patent US20220257580A1, “TREATMENT OF C3 GLOMERULOPATHY USING A C5A INHIBITOR” (CHEMOCENTRYX, INC., priority 2020, published 2022):
Entries after “also recorded” stand apart in the source; their conditions may differ.

Tests used:
Type in all cases: in vivo, human
[1] = system: patient with progressive complement 3 (C3) glomerulonephritis (recurrent C3GN in a renal transplant); assay: Special Needs program study of compound 1 in one patient: renal allograft biopsy histology; conditions: for Endocapillary hypercellularity/total: pre-treatment 3/11; for CD68-positive cells/glomerulus: pre-treatment 11; for Immunoflourescence microscopy, IgM: pre-treatment trace
Source text: Under the Special Needs program in the United Kingdom (which is similar to a compassionate use protocol in the US), a C3 glomerulonephritis patient received treatment with the orally administered complement inhibitor compound 1, following the protocol detailed below. The patient had refractory disease despite a kidney transplant and prior treatment with the broadly immunosuppressive drugs rituximab, cyclophosphamide, mycophenolate mofetil, tacrolimus, and steroids. Renal allograft biopsies were taken pre-dose, 2 and 7 months during therapy. At the Day 1 and post-Day 1 study visits, blood and urine samples will be collected for safety, efficacy, and pharmacokinetic measurements. Physical examinations and vital signs assessments will be performed throughout the study. Concomitant medication and adverse event assessments will be made at every study visit. If at all possible, a renal biopsy will be performed after an appropriate follow-up period to assess the changes in kidney histology. Efficacy assessments include: • 1. First morning urinary PCR or ACR; • 2. eGFR by Modification of Diet in Renal Disease (MDRD) formula based on serum creatinine; • 3. Plasma and urine pharmacodynamic markers, e.g., MCP-1, C3a, C5a, properdin, and sC5b-9; • 4. Glomerular inflammation (e.g., crescents, inflammatory cell infiltrate, endocapillary proliferation) and C3 deposition in a follow-up renal biopsy sample; Renal biopsies will be analyzed by periodic acid-Schiff (PAS) staining, immunofluorescence staining for C3, C5b-9, and potentially other markers. Electron microscopy may also be performed.

[2] = system: patients with C3 glomerulopathy; assay: Phase 2 placebo-controlled study (ACCOLADE): safety and tolerability; conditions: patients with C3G
Source text: The secondary objectives of this study include assessment of: • 1. The safety of compound 1 compared to placebo based on the incidence of adverse events, changes in clinical laboratory measurements, and vital signs; • 2. Changes in laboratory parameters of renal disease including estimated glomerular filtration rate (eGFR), proteinuria, and urinary excretion of monocyte chemoattractant protein-1 (MCP-1) with compound 1 compared to placebo; • 3. Health-related quality-of-life changes based on Short Form-36 version 2 (SF-36 v2) and EuroQOL-5D-5L (EQ-5D-5L) with compound 1 compared to placebo; • 4. Evaluation of the pharmacokinetic profile of compound 1 in patients with C3 glomerulopathy.
Safety assessments include adverse events, physical examination abnormalities, vital signs, and clinical laboratory tests (including blood chemistry, hematology, and urinalysis).
Safety endpoints include: • 1. Patient incidence of treatment-emergent serious adverse events, adverse events, and withdrawals due to adverse events; • 2. Change from baseline and shifts from baseline in all safety laboratory parameters; • 3. Change from baseline in vital signs.

[3] = system: patients with C3 glomerulopathy; assay: Phase 2 placebo-controlled study (ACCOLADE): C3G Histologic Index from kidney biopsies
Procedure: The primary objective is to evaluate the efficacy of compound 1 compared to placebo based on histologic changes in C3G pathology from kidney biopsies taken before and during treatment. Patients will then be randomized, 1:1, to receive 30 mg compound 1 twice daily or matching placebo for 26 weeks in a double-blind, placebo-controlled manner. The 26-week double-blind period will be followed by a 26-week period during which all patients will receive compound 1 treatment. Efficacy assessments include: • 1. Renal histology to determine the C3G Histologic Index (CHI) for disease activity and chronicity; • 2. eGFR calculated by the Modification of Diet in Renal Disease (MDRD) equation from serum creatinine; • 3. First morning urinary PCR; • 4. First morning urinary MCP-1:creatinine ratio; • 5. EQ-5D-5L and SF-36 v2. All renal biopsies will also be analyzed based on hematoxylin-eosin (H&E) staining, periodic acid-Schiff (PAS) staining, trichrome, and Jones methenamine silver staining. These renal biopsies will be evaluated by a central reader, blinded to treatment assignment from either slides or high-resolution electronic images. The central reader will determine the degree of disease activity and chronicity. The primary efficacy endpoint is the percent change from baseline to week 26 in the C3G Histologic Index (CHI) for disease activity. The compound 1 and placebo groups will be compared by ANCOVA with treatment group and randomization strata (C3GN or DDD, and renal transplant or not) as factors, and baseline as covariate. Point estimates and corresponding 95% confidence intervals will be estimated for the difference between the compound 1 and placebo control group. Other efficacy endpoints include: • 1. The percent change from baseline in the CHI for disease chronicity over the placebo-controlled 26-week treatment period; • 2. The change and percent change from baseline in eGFR over the placebo-controlled 26-week treatment period; • 3. The percent change from baseline in urinary PCR over the placebo-controlled 26-week treatment period; • 4. The percent change from baseline in urinary MCP-1:creatinine ratio over the placebo-controlled 26-week treatment period; • 5. Change from baseline in EQ-5D-5L and SF-36 v2 (domains and component scores) over the placebo-controlled 26-week treatment period. The primary endpoint of the study was change from baseline to week 26 in the C3G Histologic Index for Disease Activity, comparing the changes in kidney histology from biopsy sections taken from patients characterized by elevated levels of C5b-9 complement markers in the blood at time of study entry (baseline).

[4] = system: patient with progressive complement 3 (C3) glomerulonephritis (recurrent C3GN in a renal transplant); assay: Special Needs program study of compound 1 in one patient: eGFR and proteinuria; conditions: for eGFR decline / eGFR: eGFR 83 mL/min/1.73 m^2 14 months prior, 46 at start of treatment
Source text: Under the Special Needs program in the United Kingdom (which is similar to a compassionate use protocol in the US), a C3 glomerulonephritis patient received treatment with the orally administered complement inhibitor compound 1, following the protocol detailed below. The patient had refractory disease despite a kidney transplant and prior treatment with the broadly immunosuppressive drugs rituximab, cyclophosphamide, mycophenolate mofetil, tacrolimus, and steroids. Renal allograft biopsies were taken pre-dose, 2 and 7 months during therapy. The primary efficacy objective is to evaluate the efficacy of compound 1 based on change from baseline in eGFR (MDRD, Estimated Glomerular Filtration Rate) and proteinuria. This is a clinical study to test the safety, tolerability, and efficacy of compound 1 in a patient with recurrent […] in a renal transplant. The patient will have biopsy proven recurrent […] prior to start of dosing, and be deemed eligible based on the inclusion and exclusion criteria. Screening procedures will include recording of demographics, medical history, medication history, physical examination and vital signs, serum chemistry, hematology, urinalysis (including UPCR measurement), viral screening (if not performed within prior 12 weeks), and estimated glomerular filtration rate (eGFR) assessment based on serum creatinine. The baseline eGFR needs to be at least 25 mL/min/1.73 m^2 for study eligibility. On Day 1, the patient will start compound 1 treatment. Patients will take compound 1 30 mg orally twice daily for an initial period of 84 days. The patient will visit the study center on Days 1, 8, 15, 29, 57, and 85. The compound 1 dose will be taken in the morning optimally within one hour after breakfast and in the evening optimally within one hour after dinner. If the patient's clinical condition stabilizes or improves, and there are no adverse events preventing further treatment, the patient may be treated for another 84-day treatment cycle. The 84-day cycles may be repeated for a total of up to 4 cycles under this protocol. For the 84-day cycles after the first cycle, the patient will visit the study center every 4 weeks. There will be 4-week follow-up period after the patient stops the compound 1 treatment. Efficacy assessments include: • 1. First morning urinary PCR or ACR; • 2. eGFR by Modification of Diet in Renal Disease (MDRD) formula based on serum creatinine; • 3. Plasma and urine pharmacodynamic markers, e.g., MCP-1, C3a, C5a, properdin, and sC5b-9; • 4. Glomerular inflammation (e.g., crescents, inflammatory cell infiltrate, endocapillary proliferation) and C3 deposition in a follow-up renal biopsy sample;

[5] = system: patients with C3 glomerulopathy; assay: Phase 2 placebo-controlled study (ACCOLADE): eGFR, urinary PCR, urinary MCP-1:creatinine ratio
Source text: The secondary objectives of this study include assessment of: • 1. The safety of compound 1 compared to placebo based on the incidence of adverse events, changes in clinical laboratory measurements, and vital signs; • 2. Changes in laboratory parameters of renal disease including estimated glomerular filtration rate (eGFR), proteinuria, and urinary excretion of monocyte chemoattractant protein-1 (MCP-1) with compound 1 compared to placebo; • 3. Health-related quality-of-life changes based on Short Form-36 version 2 (SF-36 v2) and EuroQOL-5D-5L (EQ-5D-5L) with compound 1 compared to placebo; • 4. Evaluation of the pharmacokinetic profile of compound 1 in patients with C3 glomerulopathy. Patients will then be randomized, 1:1, to receive 30 mg compound 1 twice daily or matching placebo for 26 weeks in a double-blind, placebo-controlled manner. The 26-week double-blind period will be followed by a 26-week period during which all patients will receive compound 1 treatment. Efficacy assessments include: • 1. Renal histology to determine the C3G Histologic Index (CHI) for disease activity and chronicity; • 2. eGFR calculated by the Modification of Diet in Renal Disease (MDRD) equation from serum creatinine; • 3. First morning urinary PCR; • 4. First morning urinary MCP-1:creatinine ratio; • 5. EQ-5D-5L and SF-36 v2. Other efficacy endpoints include: • 1. The percent change from baseline in the CHI for disease chronicity over the placebo-controlled 26-week treatment period; • 2. The change and percent change from baseline in eGFR over the placebo-controlled 26-week treatment period; • 3. The percent change from baseline in urinary PCR over the placebo-controlled 26-week treatment period; • 4. The percent change from baseline in urinary MCP-1:creatinine ratio over the placebo-controlled 26-week treatment period; • 5. Change from baseline in EQ-5D-5L and SF-36 v2 (domains and component scores) over the placebo-controlled 26-week treatment period. Continuous variables, including eGFR, urinary PCR, urinary MCP-1:creatinine ratio, EQ-5D-5L, and SF-36 v2 will be analyzed using a mixed effects model for repeated measures ([…]) with treatment group, visit, treatment-by-visit interaction, and randomization strata (C3GN or DDD, and renal transplant or not) as factors, and baseline as covariate. Patients will be considered as repeated measure units over visits. Point estimates and corresponding 95% confidence intervals will be estimated for the difference between the compound 1 group and the control group across 26 weeks using simple contrast from the model. Similar to the primary endpoint, the second 26 weeks will be compared to the first 26 weeks for the placebo group.

Cc1ccc(NC(=O)[C@H]2CCCN(C(=O)c3c(C)cccc3F)[C@H]2c2ccc(NC3CCCC3)cc2)cc1C(F)(F)F [Compound 1, avacopan]
Endocapillary hypercellularity/total ([1]; 2 months of therapy): 0/36 | CD68-positive cells/glomerulus ([1]; 2 months of therapy): 2-3 | Immunoflourescence microscopy, IgM ([1]; 2 months of therapy): neg | Endocapillary hypercellularity/total ([1]; 7 months of therapy): 0/14 | CD68-positive cells/glomerulus ([1]; 7 months of therapy): 1-2 | Immunoflourescence microscopy, IgM ([1]; 7 months of therapy): neg | glomerular inflammation ([1]; on-treatment biopsy compared to pre-treatment): reduced glomerular inflammation | glomerular endocapillary proliferation / hypercellularity ([1]; on-treatment kidney biopsy compared to pre-treatment biopsy): clearance of glomerular endocapillary proliferation; also recorded: resolution of glomerular endocapillary hypercellularity; also recorded: reduction in endocapillary hypercellularity | glomerular inflammatory macrophages ([1]; on-treatment kidney biopsy compared to pre-treatment biopsy, CD68 staining): marked decrease; also recorded: reduction in glomerular macrophages | safety and tolerability [2]: safe and well-tolerated | C3G Index for Disease Chronicity, higher change in placebo group than avacopan ([3]; baseline to Week 26): 26 percentage point | C3G Histologic Index for Disease Chronicity, change from baseline ([3]; baseline to Week 26, increase = worsening, placebo 58%): 32% | C3G Histologic Index for Disease Activity (C3G Activity Score), improvement on average ([3]; baseline to week 26, all C3G subjects (elevated and normal C5b-9), placebo worsened by 26%): 6% | C3G Activity Score, average difference between the two treatment arms ([3]; baseline to week 26, elevated C5b-9 patients, avacopan vs placebo, not statistically significant): approximately 40% | C3G Histologic Index for Disease Activity (C3G Activity Score), improvement on average ([3]; baseline to week 26, patients with elevated C5b-9 at baseline, placebo worsened by 38%): 2% | C3G Histologic Index for Disease Chronicity, mean change from baseline ([3]; baseline to week 26, placebo 1.6, P<0.05): 0.8 | eGFR decline ([4]; after 1 month of treatment): attenuated | Proteinuria drop ([4]; single C3GN patient, compound 1 30 mg orally twice daily): approximately 80% | eGFR decline / eGFR ([4]; single C3GN patient): stabilized eGFR | eGFR decline / eGFR ([4]; single C3GN patient, listed as compound 1): attenuated or stopped | Urinary MCP-1:Creatinine Ratio Percent Change from Baseline ([5]; 26-week treatment period, placebo 1%): −12% | Urinary Protein:Creatinine Ratio (Proteinuria) Percent Change from Baseline ([5]; 26-week treatment period, placebo −14%): −26% | eGFR improvement from baseline ([5]; 26 weeks, subjects with eGFR <60 mL/min/1.73 m^2 at baseline, placebo 6% worsening, P=0.0199): 13% | eGFR mean increase ([5]; 26 weeks, subjects with eGFR <60 mL/min/1.73 m^2 at baseline, placebo decrease of 1.4): about 5 mL/min/1.73 m^2 | eGFR average increase relative to placebo ([5]; after 26 weeks, subjects with eGFR <60 mL/min/1.73 m^2 at baseline): ~20% | eGFR improvement on average from baseline ([5]; baseline to week 26, overall, placebo worsened by 6%, P=0.0221): 5% | UPCR (proteinuria) reduction from baseline ([5]; end of 26 weeks, placebo 14%): 26% | urinary MCP-1 creatinine ratio versus the placebo group ([5]; throughout the 26-week treatment period): consistently exhibiting lower levels | UPCR (proteinuria) mean decrease from baseline ([5]; week 16, placebo 1% decrease, P<0.05): 35%
